{"source": "patent US12121530B2", "about": "“Composition and methods for treating articulating joint disorders with nucleoside reverse transcriptase inhibitors” (RHODE ISLAND HOSPITAL, priority 2018, dated 2024)", "key": {"[1]": {"test_system": "C28 transiently over-express miR-365", "assay": "C28 transiently over-expressing miR-365 treated with 3TC, RT-qPCR", "assay_type": "cell-based, human", "procedure": "Cells were seeded onto desired size plates to reach 70-90% confluence and transfected with miR-365 mimic or miRNA mimic negative control or miR-365 inhibitor or inhibitor negative control (Dharmacon®, Lafayette, Colo., USA). Lipofectamine 3000 (Invitrogen®, Waltham, Mass., USA) was used as transfection reagents. Medium is changed 24 hrs after transfection. 48 hrs post transfection, cells were lysated in either QIAzol for RNA purification and real-time PCR analysis or ice-cold lysis buffer containing protease inhibitor and phosphatase inhibitor for western blot analysis. MiR-365 mimic, miRNA mimic negative control, miR-365 inhibitor and inhibitor negative control were typically used at a final concentration of 25 nM unless otherwise stated.\n(§1) Both miRNA and mRNA were extracted using miRNeasy Mini Kit (Qiagen®, Germantown, Md., USA) and reversely transcribed using miScriptIIRT Kit (Qiagen®, Germantown, Md., USA) according to manufacturer's instruction. qPCR was performed using SYBR Green PCR master mix (Qiagen®, Germantown, Md., USA) on a Bio-Rad CFX96 real-time PCR detection system (Bio-Rad®, Hercules, Calif., USA). Amplification conditions are as follows: 95° C. for 10 min, 40 cycles of 95° C. for 10″, 55° C. for 30″, and 72° C. for 30″. 18S ribosomal or GAPDH RNA was used as an internal control gene to normalize the mRNAs level. The ubiquitously expressed snRNA U6 was used as an endogenous control for miRNAs level. Primers were synthesized by Integrated DNA Technologies (http://www.idtdna.com). The primers for miR-365 were purchased from Qiagen. Fold changes of mRNA and miRNAs were calculated by the 2^^(ΔΔCt) method and normalized to 18S/GAPDH or U6 snRNA, respectively."}, "miR-365 Tg mice": {"test_system": "miR-365 Tg mice", "assay": "primary OA model: miR-365 Tg mice given oral 3TC for 4 months", "assay_type": "in vivo, mouse", "settings": "for tibial subchondral BV/TV / connectivity density of subchondral bone / trabecular number of subchondral bone / trabecular separation of subchondral bone: microCT"}, "129S6/SvEv mice": {"test_system": "129S6/SvEv mice", "assay": "DMM induced OA (PTOA) in 129S6/SvEv mice, oral 3TC or FTC", "assay_type": "in vivo, mouse", "settings": "for Adamts5 mRNA in cartilage / Col10 (Col 10a1) mRNA in cartilage / Line-1 level in cartilage / Mmp13 mRNA in cartilage / miR-365 induction by DMM: DMM mice, qPCR, versus Saline; for body weights, drug versus control treatment groups: DMM or Sham mice, drug in water from 8 weeks old for 4 weeks; for DMM induced proteoglycan loss in surgical knees: histology, drug in water for 4 weeks; for DMM induced OA / cartilage joint degeneration (Safranin O, OARSI quantification): oral administration for 1 month from 2-month-old", "text": "12956/SvEv strain male mice were purchased from Taconic (https://www.taconic.com/mouse-model/129s6) at their age of 7-week-old. At least 3-day (72-hrs) acclimation period must be given to mice before any further procedures occurred to them. All 12956/SvEv strain mice throughout the studies were male.\n129S6/SvEv male mice were chosen for experimental subjects at their age of 8-week-old. To create mouse injury/trauma induced OA model, medial meniscus ligament was transected using a previously described method (Lohmander, L. S., et al. Am J Sports Med 35, 1756-1769 (2007)). Briefly, 8-week-old male mice were anesthetized using either intraperitoneal (IP) injection of Ketamine/Dexmedetomidine or isoflurane to carry out medial parapatellar arthrotomy. Transection was made with a stab knife (Sharpoint™, Cat. 72-1551). At Weeks 12, mice were euthanized and dissected for histological examination as well as cartilage RNA extraction. 12 mice were used for each group/time point.\nParaffin sections were de-paraffinized in 2 changes of xylene, 10 mins each, followed by re-hydration in 2 changes of 100% alcohol, 5 mins each; 2 changes of 95% alcohol, 5 mins each; 70% alcohol for 5 mins. Sections were then rinsed in running tap water for 2 mins before stained with 0.4% fast green solution (Sigma, Cat. F-7258, St. Louis, Mo. 63103 USA) for 2 mins however the latter timing must be empirically controlled to assure desired coloration. Stained sections were then quickly rinsed with 1% acetic acid solution (Sigma, Cat. 695092-500ML-GL, St. Louis, Mo. 63103 USA) for no more than 10-15 sec. 0.1% Safranin O Solution was used for staining proteoglycan however the actual timing must be carefully determined based on actual coloring condition, for maximally 10 mins. After Safranin O staining, sections were submerged in 2 changes of 95% alcohol, 2 mins each, 2 changes of 100% alcohol, 2 mins each for de-hydration. Lastly, sections were cleared in 2 changes of xylene, 2 mins each, and mounted using resinous mounting medium (ACRYMOUNT™, Cat. SL80-4, McKinney, Tex. 75069 USA).\nTo histologically evaluate OA severity, we quantified Safranin O stained knee sections according to OARSI semi-quantitative system as previously described^3.\nas §1"}, "[2]": {"test_system": "mouse primary chondrocytes", "assay": "RT-qPCR gene expression in mouse primary chondrocytes treated with 3TC or FTC at various dosages", "assay_type": "cell-based", "settings": "mouse chondrocytes (FIG. 3H), western blot Line-1-ORF1"}, "[3]": {"settings": "human chondrocytes over-expressing miR-365, various concentrations"}, "[4]": {"settings": "miR-365 Tg mice, 3TC for 4 months, RT-qPCR"}, "[5]": {"settings": "miR-365 Tg mice, 3TC for four months"}}, "note": "“Also recorded” adds a separate entry of the source.", "data": [{"compound": "Nc1ccn([C@@H]2CS[C@H](CO)O2)c(=O)n1", "note": "[3TC, lamivudine]", "values": [{"measurement": "ACAN suppression by miR-365", "setting": "[1]; [3]", "value": "rectifies"}, {"measurement": "miR-365 induced up-regulation of ADAMTS5", "setting": "[1]; [3]", "value": "completely abolishes"}, {"measurement": "miR-365 induced up-regulation of COL10", "setting": "[1]; [3]", "value": "completely abolishes"}, {"measurement": "miR-365 induced up-regulation of IHH", "setting": "[1]; [3]", "value": "completely abolishes"}, {"measurement": "miR-365 induced up-regulation of LINE-1", "setting": "[1]; [3]", "value": "completely abolishes"}, {"measurement": "effect of miR-365 on L1, ADAMTS5, IHH, COL10A1 and ACAN levels", "setting": "[1]; miR-365 transfected human chondrocytes (FIG. 3O-3T)", "value": "abolished and in some cases even reversed"}, {"measurement": "early onset of OA / OA pathogenesis (Safranin O staining, OARSI quantification)", "setting": "miR-365 Tg mice; 6-month-old miR-365 Tg mice, 3TC for 4 months", "value": "abolished; also recorded: prevented early onset of OA"}, {"measurement": "tibial subchondral BV/TV", "setting": "miR-365 Tg mice; Cre control mice, 3TC 4 months", "value": "did not alter"}, {"measurement": "connectivity density of subchondral bone", "setting": "miR-365 Tg mice; Cre mice, 3TC 4 months", "value": "increased"}, {"measurement": "trabecular number of subchondral bone", "setting": "miR-365 Tg mice; Cre mice, 3TC 4 months", "value": "increased"}, {"measurement": "trabecular separation of subchondral bone", "setting": "miR-365 Tg mice; Cre mice, 3TC 4 months", "value": "decreased"}, {"measurement": "subchondral BMD", "setting": "miR-365 Tg mice; miR-365 Tg mice, 3TC 4 months", "value": "without decreasing"}, {"measurement": "connectivity density of subchondral bone", "setting": "miR-365 Tg mice; miR-365 Tg mice, 3TC 4 months", "value": "no effect"}, {"measurement": "tibial subchondral BV/TV", "setting": "miR-365 Tg mice; miR-365 Tg mice, 3TC 4 months", "value": "did not alter"}, {"measurement": "trabecular number of subchondral bone", "setting": "miR-365 Tg mice; miR-365 Tg mice, 3TC 4 months", "value": "no effect"}, {"measurement": "trabecular separation of subchondral bone", "setting": "miR-365 Tg mice; miR-365 Tg mice, 3TC 4 months", "value": "no effect"}, {"measurement": "Acan levels in articular cartilage", "setting": "miR-365 Tg mice; [4]", "value": "unchanged"}, {"measurement": "Adamts5 expression in articular cartilage", "setting": "miR-365 Tg mice; [4]", "value": "significantly inhibited; also recorded: significantly suppressed"}, {"measurement": "Alu expression in articular cartilage", "setting": "miR-365 Tg mice; [4]", "value": "significantly suppressed"}, {"measurement": "Col10 (Col10a1) expression in articular cartilage", "setting": "miR-365 Tg mice; [4]", "value": "significantly inhibited; also recorded: significantly suppressed"}, {"measurement": "Inf-α expression in articular cartilage", "setting": "miR-365 Tg mice; [4]", "value": "significantly inhibited"}, {"measurement": "Line-1 (Line-1-ORF2) expression in articular cartilage", "setting": "miR-365 Tg mice; [4]", "value": "significantly inhibited; also recorded: abolished; also recorded: significantly suppressed"}, {"measurement": "Sqstm1 expression in articular cartilage", "setting": "miR-365 Tg mice; [4]", "value": "inhibition was abolished; also recorded: significantly up-regulated"}, {"measurement": "Zc3hav1 (Zac3hav1) expression in articular cartilage", "setting": "miR-365 Tg mice; [4]", "value": "inhibition was abolished; also recorded: significantly up-regulated"}, {"measurement": "Dicer mRNA level in cartilage", "setting": "miR-365 Tg mice; [5]", "value": "inhibition was abolished"}, {"measurement": "Prkdc mRNA level in cartilage", "setting": "miR-365 Tg mice; [5]", "value": "inhibition was abolished"}, {"measurement": "miR-365 expression in articular cartilage", "setting": "miR-365 Tg mice; miR-365 Tg mice, oral 3TC for 4 months, RT-qPCR", "value": "abolished; also recorded: significantly suppressed"}, {"measurement": "Ihh expression in vivo", "setting": "miR-365 Tg mice; mice treated with 3TC from 2-month old till 6-month old", "value": "suppresses only Line-1 but not Ihh"}, {"measurement": "Adamts5 mRNA in cartilage", "setting": "129S6/SvEv mice", "value": "significantly repressed"}, {"measurement": "Col10 (Col 10a1) mRNA in cartilage", "setting": "129S6/SvEv mice", "value": "significantly repressed"}, {"measurement": "Line-1 level in cartilage", "setting": "129S6/SvEv mice", "value": "inhibition"}, {"measurement": "Mmp13 mRNA in cartilage", "setting": "129S6/SvEv mice", "value": "significantly repressed"}, {"measurement": "miR-365 induction by DMM", "setting": "129S6/SvEv mice", "value": "significantly prohibit"}, {"measurement": "body weights, drug versus control treatment groups", "setting": "129S6/SvEv mice", "value": "No appreciable difference"}, {"measurement": "DMM induced proteoglycan loss in surgical knees", "setting": "129S6/SvEv mice", "value": "effectively prevent"}, {"measurement": "DMM induced OA / cartilage joint degeneration (Safranin O, OARSI quantification)", "setting": "129S6/SvEv mice", "value": "significantly prevented; also recorded: significantly inhibited"}, {"measurement": "L1 expression at protein level", "setting": "[2]", "value": "inhibited"}]}, {"compound": "Nc1nc(=O)n([C@@H]2CS[C@H](CO)O2)cc1F", "note": "[FTC, 2′,3′-dideoxy-5-fluoro-3′-thiacytidine]", "values": [{"measurement": "Adamts5 mRNA in cartilage", "setting": "129S6/SvEv mice", "value": "significantly repressed"}, {"measurement": "Col10 (Col 10a1) mRNA in cartilage", "setting": "129S6/SvEv mice", "value": "significantly repressed"}, {"measurement": "Line-1 level in cartilage", "setting": "129S6/SvEv mice", "value": "inhibition"}, {"measurement": "Mmp13 mRNA in cartilage", "setting": "129S6/SvEv mice", "value": "significantly repressed"}, {"measurement": "miR-365 induction by DMM", "setting": "129S6/SvEv mice", "value": "significantly prohibit"}, {"measurement": "body weights, drug versus control treatment groups", "setting": "129S6/SvEv mice", "value": "No appreciable difference"}, {"measurement": "DMM induced proteoglycan loss in surgical knees", "setting": "129S6/SvEv mice", "value": "effectively prevent"}, {"measurement": "DMM induced OA / cartilage joint degeneration (Safranin O, OARSI quantification)", "setting": "129S6/SvEv mice", "value": "significantly prevented; also recorded: significantly inhibited"}]}]}
